The source of these data is patent publication US6423727B1, “Certain thiol inhibitors of endothelin-converting enzyme” (Novartis AG, priority 1998, dated 2002).

Ends that are not written are not given here.

In the first series the target is rabbit antibodies that recognize specifically the carboxyl terminal tryptophan of ET-1. The series can be described thus: radioimmunoassay: displacement of [125I]ET-1 binding to the antibodies. The conditions noted are these: mean±SEM, n=3-5; 4° C. overnight. On the procedure:
Diluted samples (200 μL) obtained from the above enzyme assay are incubated at 4° C. overnight with 25 μL each of [^125I]ET-1 (10,000 cpm/tube) and 1:20,000-fold diluted rabbit antibodies that recognize specifically the carboxyl terminal tryptophan of ET-1. Goat anti-rabbit antibodies coupled to magnetic beads (70 μg) are then added to each tube, and the reaction mixture is further incubated for 30 min at room temperature. The beads are pelleted using a magnetic rack. The supernatant is decanted, and the radioactivity in the pellet is counted in a gamma counter. Total and nonspecific binding are measured in the absence of nonradioactive ET-1 and anti-ET antibodies, respectively.
Background: Loss of bound radioactivity is the signal in a displacement assay; it reports binding, not function.
Turning to “ET-1: endothelin-1, formed from big ET-1 by ECE; nonradioactive competitor in the radioimmunoassay”, the “IC50 for displacement of [125I]ET-1 binding to the antibodies” value came out at 21 ± 2 fmol.
Take “big ET-1: Human big ET-1, the ECE substrate used in the enzyme assay (CSCSSLMDKECVYFCHLDIIWVNTPEHVVPYGLGSPRS; ends and bridges not checked; cysteine pairing not given here; UniProt P05305 53-90, looked up)”: the “IC50 for displacement of [125I]ET-1 binding to the antibodies” value is on record as 260,000±66,000 fmol.

Tested on in a further series: not given
Test: not given
Settings: not given
Usually melting point stands for the temperature, or range, at which the solid turns liquid. As for `O=C(NC1(C(=O)NC(Cc2ccc(C3CCCCC3)cc2)C(=O)O)CCCC1)C(S)Cc1ccccc1` (stereo not shown) [3-(4-Cyclohexyl-phenyl)-2-{[1-(2-mercapto-3-phenyl-propionylamino)-cyclopentanecarbonyl]-amino}-propionic acid], the melting point fell in the range of 172 to 175 °C.
In turn, `Cc1c(CC(NC(=O)C2(NC(=O)C(S)CC(C)C)CCCC2)C(=O)O)oc2c(F)c(F)c(F)c(F)c12` (stereo not shown) [Example 13(a), 2-{[1-(2-Mercapto-4-methyl-pentanoylamino)-cyclopentanecarbonyl]-amino}-3-(4,5,6,7-tetrafluoro-3-methyl-benzofuran-2-yl)-propionic acid] yielded a melting point of 115 to 117 °C.
As for `CC(C)CC(S)C(=O)NC1(C(=O)NC(Cc2c[nH]c3ccccc23)C(=O)O)CCCC1` (stereo not shown) [Example 13(b), 3-(1H-Indol-3-yl)-2-{[1-(2-mercapto-4-methyl-pentanoylamino)-cyclopentanecarbonyl]-amino}-propionic acid], the melting point lay within 116 to 118 °C.
On the same count and under the same terms, with `CCCC(S)C(=O)NC1(C(=O)NC(Cc2c[nH]c3ccccc23)C(=O)O)CCCC1` (stereo not shown) [Example 13(c), 3-(1H-Indol-3-yl)-2-{[1-(2-mercapto-pentanoylamino)-cyclopentanecarbonyl]-amino}-propionic acid] the figure was 102 to 105 °C; with `CC(C)CC(S)C(=O)NC1(C(=O)NC(Cc2csc3ccccc23)C(=O)O)CCCC1` (stereo not shown) [Example 13(e), 3-Benzo[b]thiophen-3-yl-2-{[1-(2-mercapto4-methyl-pentanoylamino)-cyclopentanecarbonyl]-amino}-propionic acid], 135 to 137 °C.
